# Experimental data reported in patent US20220235006A1, “PYRIDINE DERIVATIVES AS TMEM16A MODULATORS FOR USE IN THE TREATMENT OF RESPIRATORY CONDITIONS” (TMEM16A LIMITED, priority 2019, published 2022).
# Key:
# Microsomal stability = format: in vitro ADME; details: human microsomes 0.5 mg/mL; 1 μM; 1 mM NADPH
# Procedure: Microsomes (human) were obtained from Bioreclamation.
# All Test and reference control compounds (raloxifene, diclofenac, terfenadine, propranolol, dextromethorphan and metoprolol) were dissolved to create a 100 μM stock (final concentrations; 91.5% Acetonitrile: 8.5% DMSO). Final test compound concentration in incubation was 1 μM (<0.1% DMSO).
# Solution 1: 17.4 g potassium phosphate dibasic anhydrous (K2HPO4, 0.1 M) dissolved in 1 L deionised water. Solution 2: 13.6 g potassium phosphate monobasic anhydrous (KH2PO4, 0.1 M) dissolved in 1 L deionised water. pH7.4 with 2 mM magnesium chloride. NADPH (10 mM) is prepared in deionised water.
# Microsomes (all species) were removed from the −80° C. thawed at 37° C. Microsomes were diluted in assay buffer to achieve a final protein concentration of 0.5 mg/mL and 1 mM NADPH.
# The following procedure was completed on a Perkin Elmer Janus robotic platform in 96 well format: The microsomal incubation plate was transferred to a heater shaker at 300 rpm and solution heated to 37° C. for 10 min pre-warm. A no co-factor control at 0 and 45 min and one replicates of each test compound was included in every assay. Microsomes were incubated at 37° C., on a shaker set at 300 rpm throughout the assay. […] Samples were diluted 1:1 with water using the Janus Robot and analysed by […]
# [1] = test system: Cryopreserved hepatocytes (human); test: Hepatic stability (cryopreserved hepatocytes); format: in vitro ADME; details: 1 μM
# Procedure: Cryopreserved hepatocytes (human) were obtained from Bioreclamation.
# Test compounds and reference controls (raloxifene, diclofenac, terenadine, propranolol, dextromethorphan and metoprolol) were dissolved in a 100 μM stock was prepared by diluting 5 μL of 4 mM (DMSO) in 195 μL of 50:50 DMSO:hepatocyte buffer. Final test compound concentration in incubation was 1 μM.
# The hepatocyte buffer was prepared (Williams E media containing phenol red and Glutamax™, 15 mM HEPES, warmed to 37° C., pH7.4 with NaOH). Hepatocyte cells (all main species) were removed from liquid nitrogen, thawed in a waterbath, decanted into 50 mL of pre-warmed Cryopreserved Hepatocyte Recovery Media (LifeTechnologies) and centrifuged. Supernatant fraction was removed, cells were re-suspended in hepatocyte buffer and counted by trypan blue exclusion. Cell viability of >80% was required for all assays.
# 2 μL of 100 μM compound stock solution was added to relevant wells to initiate the incubation. A no cell control and two replicates of each test compound was included in every assay. Cells were incubated at 37° C., on a shaker set at 300 rpm. […] Samples were diluted 1:1 with water using the Janus Robot and analysed by LC-MS/MS.
# [2] = Kinetic solubility determination (high throughput); format: physicochemical; details: kinetic from dmso stock, sterile water, 5% DMSO, room temperature
# Procedure: Test compounds (10 μL; 20 mM DMSO solution) were added to sterile water (190 μL) in triplicate and shaken at 300 rpm at room temperature. After 90 min. the test compounds were filtered by centrifuge (5 min. at 3000 rpm) to obtain the aqueous filtrate. Acetonitrile (20 μL) was dispensed into clean 96-well UV/VIS analysis plate and aqueous filtrate (80 μL) added and the plate analysed for test compound concentration using a Molecular Devices SPECTRAmax® plus microplate reader at the following wavelengths: (280, 300, 320, 340, 360, 800 nm). […] The diluted filtrate (80 μL) was then added to acetonitrile (20 μL) and the plate analysed. as previously.
# [3] = Caco-2 permeability assay; format: in vitro ADME; details: human, Caco-2, pH 7.4; for efflux ratio at 2 h, 10 μM: B-A/A-B; for Papp B→A at 2 h, 10 μM: basolateral to apical, pH7.4
# Procedure: Caco2 permeability data provides a measure of a compound's permeability, and its potential for efflux by P-glycoprotein. […] This assay therefore provides an indication of which compounds are likely to be suitable for oral administration.
# Caco-2 cells were purchased from ATCC and passaged to create a bank of cells. Cells were not used post 20 passages.
# All test and reference compounds (metoprolol (passive permeability) and atenolol (pgp substrate)) were formulated in DMSO to 20 mM.
# 96-well plates were seeded with 9×10^3 Caco-2 cells/well in DMEM, 10% FBS, 1% NEAA, 1% pen/strep and maintained at 37° C., in a highly humidified atmosphere of 95% air and 5% CO2. Plates were ready for use on day 21.
# 10 mM DMSO stock test compounds were diluted to 1 mM in DMSO. Two replicates of each test compound were included in every assay. Final concentration of donor solution was 10 μM.
# Assay transport buffer (25 mM HEPES/Hanks Balanced Salt Solution (HBSS), pH7.4) was prepared to wash the cells, create lucifer yellow (LY) stock solutions, receiver solutions and blanks for the transport assay. Final concentration of LY was 10 μM. Basolateral wells were treated with 250 μL of 10 μM dosing drug solution or 250 μL Transport Buffer. Apical wells were treated with 75 μL drug dosing solution or 75 μL Transport Buffer. The two plates were sandwiched together and cells were incubated with test compounds for 2 hours, shaking at 50 rpm, 37° C., 0% CO2.
# A calibration curve was prepared for each compound; DMSO stock solutions were serially diluted from 300 μM to 100 μM, 30 μM, 10 μM, 3 μM, 1 μM and 0.3 μM in DMSO. 2 μL of each concentration was diluted into 198 μL of Sample Quench Solution (50% acetonitrile containing 500 nM tolbutamide). 50 μL of each calibration solution was then diluted in 50 μL Dosing Buffer (modified HBSS containing LY). Finally this plate was diluted 1:10 using a Janus robot in Robot Dilution Quench Solution (35% acetonitrile containing 250 nM tolbutamide).
# Following a 2 h incubation, 50 μL of sample was removed from each well (apical and basolateral) and added to the T2 sample plate. Lucifer Yellow fluorescence was analysed using Spectrafluor Plus featuring the XFluor software to determine membrane integrity.
# Following the fluorescence plate read, 50 μL Sample Quench Solution was then added to the T2 sample plate. Plates were diluted 1:10 and/or 1:100 into opaque 384-well plates using a Janus Robot. 1:100 dilution transfers were created sequentially directly from 1:10 dilutions. All dilutions were created using Robot Dilution Quench Solution (35% acetonitrile containing 250 nM tolbutamide). All samples were analysed by LC-MS/MS.
# [4] = Parallel artificial membrane permeability assay (PAMPA); format: in vitro ADME; details: 200 μM, 16 hours
# Procedure: Parallel artificial membrane permeability assay (PAMPA) permeability data is a useful tool to predict passive permeability through biological lipid membranes. […] Passive permeability (>0.1 and <10×10^−6 cm/s) may still give good absorption properties.
# All Test compounds were formulated in DMSO to 20 mM. Final concentration of all compounds in the assay was 200 μM with final DMSO concentration of 1%. The following reference controls were used: Antipyrine, Carbamazepine, Propranolol, Ranitidine and Ketoprofen.
# The solutions were filtered and 150 μL transferred to a High Sensitivity 96 well UV plate. This was analysed by UV as the reference plate. A 200 μL sample of the 200 μM solution was transferred to the ‘donor’ plate of the PAMPA plon sandwich plate system. […] Donor and acceptor plates were sandwiched and kept in a humid environment at room temperature for 16 hours. On completion of the incubation the donor and acceptor plates were separated. 150 μL of solution was transferred from each of the donor and acceptor PAMPA sandwich plates into High Sensitivity 96 well UV plates for analysis by UV. Passive permeability (Pe 10^−6 cm/second) was determined for each compound tested. Control compounds were compared with historic and literature values to ensure assay functionality.
Human Microsome CIint (Microsomal stability) [µL/min/mg],Human Hepatocyte CIint [1] [μL/min/million cells],solubility kinetic at 90 min [2] [µg/mL],"efflux ratio at 2 h, 10 μM [3]","Papp B→A at 2 h, 10 μM [3] [×10⁻⁶ cm/s]",PAMPA Pe (pH 5.0) ([4]; pH 5.0),PAMPA Pe (pH 6.2) ([4]; pH 6.2),PAMPA Pe (pH 7.4) ([4]; pH 7.4),Compound
51.0,15.6,10,,,,,,"CC(C)(C)NC(=O)c1cc(NC(=O)Cc2cc(O)c(C(C)(C)C)cc2F)ccn1 [91 of PCT/GB2019/050209, reference compound]"
,,152,1.8,5.7,,,,"CC(C)(O)c1cc(F)c(CC(=O)Nc2ccnc(C(=O)NC3(C(F)(F)F)CC3)c2)cc1O [Example 2, 4-[[2-[2-Fluoro-5-hydroxy-4-(1-hydroxy-1-methyl-ethyl)phenyl]acetyl]amino]-N-[1-(trifluoromethyl)cyclopropyl]pyridine-2-carboxamide]"
,,116,1,,,,,"CCC(C)(O)c1cc(F)c(CC(=O)Nc2ccnc(C(=O)NC3(C(F)(F)F)CC3)c2)cc1O (centres unmarked) [Example 2.11, 4-[[2-[2-Fluoro-5-hydroxy-4-(1-hydroxy-1-methyl-propyl)phenyl]acetyl]amino]-N-[1-(trifluoromethyl)cyclopropyl]pyridine-2-carboxamide]"
,,35,0.9,2.5,,,,CC(C#N)NC(=O)c1cc(NC(=O)Cc2cc(O)c(C(C)(C)C)cc2F)ccn1 (centres unmarked) [Example 1.3]
,,142,2.4,5.3,,,,"CC(C)(CO)c1cc(F)c(CC(=O)Nc2ccnc(C(=O)NC3(C(F)(F)F)CC3)c2)cc1O [Example 2.6, 4-[[2-[2-Fluoro-5-hydroxy-4-(2-hydroxy-1,1-dimethyl-ethyl)phenyl]acetyl]amino]-N-[1-(trifluoromethyl)cyclopropyl]pyridine-2-carboxamide]"
,,120,2.3,5.5,,,,"CC(C)(CCO)c1cc(F)c(CC(=O)Nc2ccnc(C(=O)NC3(C(F)(F)F)CC3)c2)cc1O [Example 11, 4-[[2-[2-Fluoro-5-hydroxy-4-(3-hydroxy-1,1-dimethyl-propyl)phenyl]acetyl]amino]-N-[1-(trifluoromethyl)cyclopropyl]pyridine-2-carboxamide]"
,,67,2.6,6.1,,,,"O=C(Cc1cc(O)c(C2(CO)CCC2)cc1F)Nc1ccnc(C(=O)NC2(C(F)(F)F)CC2)c1 [Example 2.13, 4-[[2-[2-Fluoro-5-hydroxy-4-[1-(hydroxymethyl)cyclobutyl]phenyl]acetyl]amino]-N-[1-(trifluoromethyl)cyclopropyl]pyridine-2-carboxamide]"
32.8,24.1,37,,,30.9 ×10^−4 cm/s,38.4 ×10^−4 cm/s,36.4 ×10^−4 cm/s,"CC(C)(C#N)NC(=O)c1cc(NC(=O)Cc2ccc(C(C)(C)C)c(O)c2)ccn1 [93.4 of PCT/GB2019/050209, reference compound]"
,,154,2.8,6,,,,"Cc1cc(C(C)(C)CO)c(O)cc1CC(=O)Nc1ccnc(C(=O)NC2(C(F)(F)F)CC2)c1 [Example 14.1, 4-[[2-[5-Hydroxy-4-(2-hydroxy-1,1-dimethyl-ethyl)-2-methyl-phenyl]acetyl]amino]-N-[1-(trifluoromethyl)cyclopropyl]pyridine-2-carboxamide]"
,,164,19.8,7.2,,,,"CC(C)(CO)c1cc(Cl)c(CC(=O)Nc2ccnc(C(=O)NC3(C(F)F)CC3)c2)cc1O [Example 15.3, 4-[[2-[2-Chloro-5-hydroxy-4-(2-hydroxy-1,1-dimethyl-ethyl)phenyl]acetyl]amino]-N-[1-(difluoromethyl)cyclopropyl]pyridine-2-carboxamide]"
,,90,2.8,4.9,,,,"CC(C)(CO)c1cc(Cl)c(CC(=O)Nc2ccnc(C(=O)NC3(C(F)(F)F)CC3)c2)cc1O [Example 14, 4-[[2-[2-Chloro-5-hydroxy-4-(2-hydroxy-1,1-dimethyl-ethyl)phenyl]acetyl]amino]-N-[1-(trifluoromethyl)cyclopropyl]pyridine-2-carboxamide]"
,,292,20.7,7.8,,,,"O=C(Cc1cc(O)c(C(CO)C(F)(F)F)cc1F)Nc1ccnc(C(=O)NC2(C(F)(F)F)CC2)c1 (centres unmarked) [Example 17, 4-[[2-[2-Fluoro-5-hydroxy-4-[2,2,2-trifluoro-1-(hydroxymethyl)ethyl]phenyl]acetyl]amino]N-[1-(trifluoromethyl)cyclopropyl]pyridine-2-carboxamide]"
